Common to all, as to assay type: biochemical
For assay [1], the target named is T1, PRMT5 (Homo sapiens, UniProt O14744).
T1 construct: purchased Viva (custom protein)
The assay can be described thus: PRMT5 IC50 assay in the presence of MTA as cofactor. As to conditions: for IC50: PRMT5, MTA as cofactor. The text has this: (§1) Table 1a indicates IC50 values (μM) against PRMT5 for exemplary compounds in the presence of SAM as cofactor, with no cofactor and with MTA as cofactor, respectively (columns 3-5). […] The Ki values can be calculated from the IC50 values as described in the Examples section. As detailed in the Examples section, for the assay performed in the presence of SAM, IC50=Ki×1.5 (Ki=IC50/1.5). For the assay performed in the presence of MTA, IC50=Ki×13.5 (Ki=IC50/13.5). Column 6 indicates the ratio between the Ki of compounds in the presence of SAM and the Ki of compounds in the presence of MTA

Assay [2] has as its target T1, PRMT5. The assay can be described thus: PRMT5 IC50 assay in the presence of SAM as cofactor.
Source text: as §1

Assay [3] addresses T1, PRMT5. The assay can be described thus: PRMT5 IC50 assay with no cofactor.
Source text: as §1

Where [4] appears, read: ratio between Ki in the presence of SAM and Ki in the presence of MTA.
Setting [5] is: ratio between the Ki in the presence of SAM and the Ki in the presence of MTA.

One may read the IC50 as the concentration at which inhibition is half-maximal.

T1 sequence (O14744 whole entry): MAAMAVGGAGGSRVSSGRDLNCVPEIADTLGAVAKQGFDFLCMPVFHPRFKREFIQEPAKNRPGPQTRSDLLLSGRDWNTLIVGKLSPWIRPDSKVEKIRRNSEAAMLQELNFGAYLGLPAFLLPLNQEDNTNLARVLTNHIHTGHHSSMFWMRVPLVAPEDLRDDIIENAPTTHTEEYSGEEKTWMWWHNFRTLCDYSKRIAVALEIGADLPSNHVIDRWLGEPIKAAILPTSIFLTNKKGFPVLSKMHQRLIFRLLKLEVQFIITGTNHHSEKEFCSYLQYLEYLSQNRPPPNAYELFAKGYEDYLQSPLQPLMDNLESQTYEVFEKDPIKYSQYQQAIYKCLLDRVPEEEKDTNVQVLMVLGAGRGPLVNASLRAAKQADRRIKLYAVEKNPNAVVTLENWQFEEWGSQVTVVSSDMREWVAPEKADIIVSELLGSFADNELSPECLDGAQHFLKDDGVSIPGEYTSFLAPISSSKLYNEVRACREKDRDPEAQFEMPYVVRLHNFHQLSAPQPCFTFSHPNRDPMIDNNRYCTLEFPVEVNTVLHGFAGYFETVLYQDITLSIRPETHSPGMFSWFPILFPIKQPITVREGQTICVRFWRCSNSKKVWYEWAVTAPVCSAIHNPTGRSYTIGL
T1 sequence (Q9BQA1 whole entry partner): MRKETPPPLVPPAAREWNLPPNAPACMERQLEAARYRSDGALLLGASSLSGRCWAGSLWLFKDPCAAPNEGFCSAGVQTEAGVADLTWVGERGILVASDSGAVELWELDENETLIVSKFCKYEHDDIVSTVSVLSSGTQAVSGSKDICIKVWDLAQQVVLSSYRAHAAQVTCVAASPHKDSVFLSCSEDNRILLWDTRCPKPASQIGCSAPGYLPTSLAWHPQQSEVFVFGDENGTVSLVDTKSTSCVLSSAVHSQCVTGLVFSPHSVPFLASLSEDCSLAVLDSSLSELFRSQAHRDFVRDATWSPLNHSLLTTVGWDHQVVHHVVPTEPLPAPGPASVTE

Take `CC(=O)N1CC(Nc2cc(C(=O)NCC(O)CN3CCc4c(C)c(OCc5ocnc5C)cc(F)c4C3)nc(N3CCCCC3)n2)C1` (stereo not drawn) [Compound 651]: the IC50 on PRMT5 [1] lay in the range of 50 to 500 nM; at PRMT5 [2] it was 50 to 500 nM; on PRMT5 [3] (read-out: No Co-factor IC50), 500 to 5000 nM. In addition, at PRMT5 [1] (setting [4]), the “SAM/MTA Ratio” value is “A (a Ki ratio greater than or equal to 10 fold between the Ki in the presence of SAM and the Ki in the presence of MTA)”.
Take `CC(=O)N1CCC(Nc2cccc(C(=O)NC[C@H](O)CN3CCc4cc(OCc5cnco5)ccc4C3)c2)C1` (stereo partly drawn) [Compound 558, 3-((1-acetylpyrrolidin-3-yl)amino)-N—((S)-2-hydroxy-3-(6-(oxazol-5-ylmethoxy)-3,4-dihydroisoquinolin-2(1H)-yl)propyl)benzamide]: the IC50 on PRMT5 [1] is 500 to 5000 nM; at PRMT5 [2] it was 500 to 5000 nM; on PRMT5 [3] it was at least 5000 nM. At PRMT5 [1] (setting [5]), the “SAM/MTA Ratio” value is “A (a Ki ratio greater than or equal to 10 fold between the Ki in the presence of SAM and the Ki in the presence of MTA)”.
As to `Cc1ncoc1COc1ccc2c(c1)CCN(C[C@@H](O)CNC(=O)c1cc(NC3CCN(C)C(=O)C3)ncn1)C2` (stereo partly drawn) [Compound 613, N-[(2S)-2-hydroxy-3-{6-[(4-methyl-1,3-oxazol-5-yl)methoxy]-1,2,3,4-tetrahydroisoquinolin-2-yl}propyl]-6-[(1-methyl-2-oxopiperidin-4-yl)amino]pyrimidine-4-carboxamide], the IC50 is 50 to 500 nM on PRMT5 [1], 50 to 500 nM on PRMT5 [2] and at least 5000 nM against PRMT5 [3].
Turning to `CCCC(=O)N1CC(Nc2cc(C(=O)NC[C@H](O)CN3CCc4cc(OCc5ocnc5C)c(F)cc4C3)ccn2)C1` [Compound 643, 2-[(1-butanoylazetidin-3-yl)amino]-N-[(2S)-3-[7-fluoro-6-[(4-methyloxazol-5-yl)methoxy]-3,4-dihydro-1H-isoquinolin-2-yl]-2-hydroxy-propyl]pyridine-4-carboxamide], the values for the IC50 on PRMT5 [1], at PRMT5 [2] and at PRMT5 [3] (read-out: No Co-factor IC50) were 50 to 500 nM, 50 to 500 nM and 500 to 5000 nM, respectively. Besides, at PRMT5 [1] (setting [4]), the “SAM/MTA Ratio” value is “A (a Ki ratio greater than or equal to 10 fold between the Ki in the presence of SAM and the Ki in the presence of MTA)”.
For `CC(=O)N1[C@@H]2CC[C@H]1C[C@@H](Nc1cc(C(=O)NC[C@H](O)CN3CCc4cc(OCc5ocnc5C)ccc4C3)ncn1)C2` [Compound 630, 6-{[(1R,3R,5S)-8-acetyl-8-azabicyclo[3.2.1]octan-3-yl]amino}-N-[(2S)-2-hydroxy-3-{6-[(4-methyl-1,3-oxazol-5-yl)methoxy]-1,2,3,4-tetrahydroisoquinolin-2-yl}propyl]pyrimidine-4-carboxamide], the results for the IC50 on PRMT5 [1], on PRMT5 [2] and at PRMT5 [3] (read-out: No Co-factor IC50) were 50 to 500 nM, 500 to 5000 nM and at least 5000 nM, respectively. Also, the “SAM/MTA Ratio” value on PRMT5 [1] (setting [4]) is “A (a Ki ratio greater than or equal to 10 fold between the Ki in the presence of SAM and the Ki in the presence of MTA)”.
Turning to `O=C(NC[C@H](O)CN1CCc2c(ccc(OCc3cnn[nH]3)c2Cl)C1)c1ccnc(NC2CCC2)c1` [Compound 269, N-[(2S)-3-[5-chloro-6-(1H-triazol-5-ylmethoxy)-3,4-dihydro-1H-isoquinolin-2-yl]-2-hydroxy-propyl]-2-(cyclobutylamino)pyridine-4-carboxamide], the values for the IC50 at PRMT5 [1], at PRMT5 [2] and on PRMT5 [3] (read-out: No Co-factor IC50) were 500 to 5000 nM, 500 to 5000 nM and at least 5000 nM, respectively. Also, the “SAM/MTA Ratio” value on PRMT5 [1] (setting [4]) was “A (a Ki ratio greater than or equal to 10 fold between the Ki in the presence of SAM and the Ki in the presence of MTA)”.
Regarding `Cc1c(OCc2ccnn2C)ccc2c1CCN(C[C@@H](O)CNC(=O)c1cc(NC3CCC3)ccn1)C2` [Compound 521, (S)-4-(cyclobutylamino)-N-(2-hydroxy-3-(5-methyl-6-((1-methyl-1H-pyrazol-5-yl)methoxy)-3N-dihydroisoquinolin-2(1H)-yl)propyl)picolinamide], the IC50 on PRMT5 [1] is 500 to 5000 nM; at PRMT5 [2] it was 500 to 5000 nM; on PRMT5 [3], at least 5000 nM. Besides, on PRMT5 [1] (setting [5]), the “SAM/MTA Ratio” value is “A (a Ki ratio greater than or equal to 10 fold between the Ki in the presence of SAM and the Ki in the presence of MTA)”.

(Values after patent US11986471B2, “Compounds and methods of use” (Tango Therapeutics, Inc., priority 2018, dated 2024).)
